# Data taken from ChEMBL document CHEMBL1201862, “PubChem BioAssay data set” (2004).
# The source made the active and inactive calls.
# What was measured:
# [1] = molecular target: Glucose-6-phosphate 1-dehydrogenase (Homo sapiens, UniProt P11413); test: inhibition of Homo sapiens G6PD, dose series – biochemical, fluorescence, selectivity assay for P. falciparum G6PD inhibitor project, dose response (AID 504792); type: functional
# Leucine aminopeptidase = molecular target: T1, Leucine aminopeptidase (Plasmodium falciparum 3D7, UniProt Q8IL11); test: P. falciparum M17LAP inhibitors, primary screen, biochemical, fluorogenic H-Leu-NHMec substrate, 1536-well (AID 1619); type: functional
# T1 sequence (Q8IL11 whole entry): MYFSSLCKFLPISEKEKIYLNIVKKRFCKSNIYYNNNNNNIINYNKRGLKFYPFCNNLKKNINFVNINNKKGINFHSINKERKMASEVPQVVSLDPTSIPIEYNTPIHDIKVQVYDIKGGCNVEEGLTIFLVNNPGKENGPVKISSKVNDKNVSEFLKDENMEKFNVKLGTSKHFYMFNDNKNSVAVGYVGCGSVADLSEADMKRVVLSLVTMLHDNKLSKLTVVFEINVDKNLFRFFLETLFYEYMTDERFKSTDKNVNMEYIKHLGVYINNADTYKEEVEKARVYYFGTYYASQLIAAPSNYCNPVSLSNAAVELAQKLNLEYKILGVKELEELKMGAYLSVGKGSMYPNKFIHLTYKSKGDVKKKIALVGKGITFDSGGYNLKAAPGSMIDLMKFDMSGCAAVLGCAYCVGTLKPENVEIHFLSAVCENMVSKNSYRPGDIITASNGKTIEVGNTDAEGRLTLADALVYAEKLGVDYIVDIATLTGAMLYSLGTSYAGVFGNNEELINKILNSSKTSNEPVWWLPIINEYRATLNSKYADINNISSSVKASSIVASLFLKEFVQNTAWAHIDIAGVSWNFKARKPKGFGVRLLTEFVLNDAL
# [2] = molecular target: G-protein coupled receptor 55 (Homo sapiens, UniProt Q9Y2T6); test: inhibition of LPI-stimulated GPR55 beta-arrestin translocation – imaging, U2OS, beta-arrestin-GFP, LPI agonist, primary screen (AID 2013); type: functional;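 further: antagonist potency measured as reduced agonist-driven arrestin aggregation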
# Sequence of G-protein coupled receptor 55 (Q9Y2T6 whole entry): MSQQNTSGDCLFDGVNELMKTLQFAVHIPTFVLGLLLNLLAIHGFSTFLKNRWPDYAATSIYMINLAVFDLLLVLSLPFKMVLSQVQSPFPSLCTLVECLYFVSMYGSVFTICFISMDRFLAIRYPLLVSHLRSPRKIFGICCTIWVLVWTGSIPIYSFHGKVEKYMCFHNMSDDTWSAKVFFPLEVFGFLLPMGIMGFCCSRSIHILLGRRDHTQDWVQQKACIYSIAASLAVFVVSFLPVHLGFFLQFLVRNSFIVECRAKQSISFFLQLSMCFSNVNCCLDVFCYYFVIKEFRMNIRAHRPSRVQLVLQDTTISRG
# [3] = molecular target: T2, Small ubiquitin-related modifier 1 (Homo sapiens, UniProt P63165); test: SUMO1 protein-protein binding blockers, potency – biochemical, FRET, dose response (AID 624383); type: functional; conditions: read-out: IC50_Mean
# T2 sequence (P63165 whole entry): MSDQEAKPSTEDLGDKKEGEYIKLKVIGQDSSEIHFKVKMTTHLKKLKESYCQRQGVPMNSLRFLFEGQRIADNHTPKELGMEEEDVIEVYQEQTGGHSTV
# [4] = molecular target: T2, Small ubiquitin-related modifier 1; test: SUMO1 protein interaction blockers, potency – biochemical, fluorescence polarization, uHTS hits, dose response (AID 624382); type: functional; conditions: read-out: IC50_Mean
# [5] = A Cell Based Secondary Assay To Explore Cytotoxicity of Compounds that Sensitize Mycobacterium Tuberculosis to Beta-Lactam Antibiotics.; type: functional
# BJ [6] = test: BJ-TERT-LT-ST fibroblast viability loss – cell-based, RAS-independent, luminescence, dose response (AID 1935); type: functional; conditions: Homo sapiens;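 further: BJ fibroblasts immortalized with TERT plus LT and ST oncogenes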
# [7] = DRD fibroblast viability loss – cell-based, non-viral oncogenic, luminescence, dose response (AID 1934); type: functional; conditions: Homo sapiens
# BJ [8] = test: BJ-TERT fibroblast viability loss – cell-based, RAS-independent, luminescence, dose response (AID 1933); type: functional; conditions: Homo sapiens
# BJ [9] = test: cells; type: functional, cell-based; conditions: Homo sapiens
# [10] = molecular target: T3, Heat shock factor protein 1 (Mus musculus, UniProt P38532); test: enhancement of HSF1-driven luciferase signal – cell-based, NIH3T3, luminescence, dose retest, confirmation (AID 435004); type: functional;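 further: stress induced by proteasome inhibitor MG132 added 30 min after compound; luciferase reporter driven by HSF1 response element in NIH3T3 cells; actives raise luminescence as potentiators of the MG132 stress response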
# T3 sequence (P38532 whole entry): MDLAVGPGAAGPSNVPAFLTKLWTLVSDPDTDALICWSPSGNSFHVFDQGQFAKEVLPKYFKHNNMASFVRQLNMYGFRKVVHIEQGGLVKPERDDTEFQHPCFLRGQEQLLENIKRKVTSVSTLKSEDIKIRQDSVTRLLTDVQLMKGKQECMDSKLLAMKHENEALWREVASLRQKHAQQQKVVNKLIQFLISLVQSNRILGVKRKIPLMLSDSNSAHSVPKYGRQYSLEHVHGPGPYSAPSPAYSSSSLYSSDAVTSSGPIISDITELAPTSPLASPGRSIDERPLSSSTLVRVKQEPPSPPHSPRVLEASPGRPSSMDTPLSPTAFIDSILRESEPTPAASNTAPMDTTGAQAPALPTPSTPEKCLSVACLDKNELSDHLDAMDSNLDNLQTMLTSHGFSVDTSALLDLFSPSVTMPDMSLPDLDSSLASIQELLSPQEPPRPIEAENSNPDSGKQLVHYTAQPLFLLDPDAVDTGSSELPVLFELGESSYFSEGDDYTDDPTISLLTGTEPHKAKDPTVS
# HEK293 = test: EBV LMP1 TES2 canonical NF-kB signalling blockers – cell-based, HEK293, luciferase, cherry-pick, dose response (AID 588343); type: functional; conditions: Homo sapiens
# INS1 = test: INS-1E survival protection against cytokine death – cell-based, luminescence, retest, dose response (AID 449756); type: functional; conditions: Rattus norvegicus;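 further: cell death triggered by IL-1 beta plus TNF-alpha plus IFN-gamma mixture; protective hits raise ATP signal compared with cytokine alone wells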
# [11] = molecular target: Glyceraldehyde-3-phosphate dehydrogenase (Homo sapiens, UniProt P04406)
# Sequence of Glyceraldehyde-3-phosphate dehydrogenase (P04406 whole entry): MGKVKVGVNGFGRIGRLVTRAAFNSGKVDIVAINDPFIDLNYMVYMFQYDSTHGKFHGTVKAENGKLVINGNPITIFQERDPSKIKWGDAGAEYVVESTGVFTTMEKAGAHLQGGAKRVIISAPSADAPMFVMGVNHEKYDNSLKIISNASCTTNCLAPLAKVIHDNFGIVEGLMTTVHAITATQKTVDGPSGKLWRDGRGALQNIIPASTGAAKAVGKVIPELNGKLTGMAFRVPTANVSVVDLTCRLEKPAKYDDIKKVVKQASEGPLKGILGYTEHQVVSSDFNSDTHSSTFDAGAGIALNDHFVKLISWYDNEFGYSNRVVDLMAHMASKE
# Large T antigen = Large T antigen (Simian virus 40, UniProt P03070); type: functional, Betapolyomavirus macacae;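 further: Confirmatory-stage PubChem screen for compounds that inhibit SV40 T antigen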
# Sequence of Large T antigen (P03070 whole entry, the tested form may be a part): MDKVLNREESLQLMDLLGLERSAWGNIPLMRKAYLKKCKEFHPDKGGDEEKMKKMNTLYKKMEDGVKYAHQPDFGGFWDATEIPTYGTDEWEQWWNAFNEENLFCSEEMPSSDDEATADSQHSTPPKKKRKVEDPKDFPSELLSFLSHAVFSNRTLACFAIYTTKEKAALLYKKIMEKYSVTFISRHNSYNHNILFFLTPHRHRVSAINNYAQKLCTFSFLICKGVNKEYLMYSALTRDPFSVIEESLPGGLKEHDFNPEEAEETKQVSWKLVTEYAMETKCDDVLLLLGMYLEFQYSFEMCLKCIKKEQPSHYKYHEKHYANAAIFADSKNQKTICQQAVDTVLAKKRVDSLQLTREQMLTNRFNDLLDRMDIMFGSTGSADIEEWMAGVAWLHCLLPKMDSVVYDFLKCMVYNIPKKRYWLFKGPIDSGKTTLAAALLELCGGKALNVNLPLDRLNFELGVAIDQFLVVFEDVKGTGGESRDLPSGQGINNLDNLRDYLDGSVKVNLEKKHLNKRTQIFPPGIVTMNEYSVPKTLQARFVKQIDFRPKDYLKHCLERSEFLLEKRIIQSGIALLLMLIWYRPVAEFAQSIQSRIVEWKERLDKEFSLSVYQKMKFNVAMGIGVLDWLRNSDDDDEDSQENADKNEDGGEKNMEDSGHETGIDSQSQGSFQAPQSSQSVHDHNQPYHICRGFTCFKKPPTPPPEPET
# [12] = molecular target: T4, Carboxy-terminal domain RNA polymerase II polypeptide A small phosphatase 1 (Homo sapiens, UniProt Q9GZU7); test: CTDSP1 inhibitors, concentration-response, biochemical, absorbance readout, ultra-high-throughput screen actives (AID 540297); type: functional
# T4 sequence (Q9GZU7 whole entry): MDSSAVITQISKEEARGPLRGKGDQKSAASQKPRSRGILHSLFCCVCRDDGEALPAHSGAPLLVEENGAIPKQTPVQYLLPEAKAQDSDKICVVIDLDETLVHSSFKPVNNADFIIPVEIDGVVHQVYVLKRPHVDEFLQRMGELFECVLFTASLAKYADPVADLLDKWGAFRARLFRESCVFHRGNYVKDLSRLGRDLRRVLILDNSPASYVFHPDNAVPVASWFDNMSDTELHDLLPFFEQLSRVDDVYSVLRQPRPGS
# Protein Wnt-3a = Protein Wnt-3a (Mus musculus, UniProt P27467); test: antagonism of Wnt3a pathway luciferase reporter – Wnt-LIGHT cells, luminescence, selectivity assay for Gli-SUFU antagonist project, dose response (AID 651570); type: functional; conditions: read-out: IC50_Mean;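 further: Wnt-LIGHT reporter cells stimulated with conditioned medium from Wnt3a-producing cells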
# Sequence of Protein Wnt-3a (P27467 whole entry): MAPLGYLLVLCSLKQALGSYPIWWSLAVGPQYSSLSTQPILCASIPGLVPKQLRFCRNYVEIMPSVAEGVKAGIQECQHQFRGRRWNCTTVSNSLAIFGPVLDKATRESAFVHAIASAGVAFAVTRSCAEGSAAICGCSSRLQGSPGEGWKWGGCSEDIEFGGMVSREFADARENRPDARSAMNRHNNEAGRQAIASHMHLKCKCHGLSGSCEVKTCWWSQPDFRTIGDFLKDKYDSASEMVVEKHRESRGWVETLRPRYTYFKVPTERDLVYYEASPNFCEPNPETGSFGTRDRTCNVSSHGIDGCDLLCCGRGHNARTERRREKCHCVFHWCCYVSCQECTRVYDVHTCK
# [13] = HEK-293T viability loss after treatment – luminescence, T-cell screen hits, cytotoxicity control for TCR NF-kB inhibitor project, dose response (AID 489026); type: functional, cell-based;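 further: cells exposed to compound about 14 hours before the viability readout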
# [14] = blockers of bursicon-stimulated LGR2 cAMP reporter – cell-based, HEK293, CRE-luciferase reporter, cherry pick, set 2, dose response (AID 743343); type: functional;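 further: transfected cells were stimulated with diluted bursicon conditioned medium after compound addition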
# [15] = A549 cell cytotoxicity, dose response, cytotoxicity control, plate reader, cherry-pick, antagonist series (AID 743412); type: functional, cell-based
# [16] = viability loss in HEK293 cells – cell-based, plate reader, cherry-picked samples, cytotoxicity control, dose response (AID 743446); type: functional
# [17] = blockade of melanocortin 4 receptor signaling – cell-based, plate reader, cherry pick, counter-screen for LGR2 antagonist project, dose response (AID 743444); type: functional;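 further: transfected HEK 293 cells stimulated with alpha-MSH peptide; potency of inhibitors of the alpha-MSH evoked signal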
# [18] = molecular target: T5, Rac GTPase-activating protein 1 (Homo sapiens, UniProt Q9H0H5); test: blockers of MgcRacGAP-driven Rac1 GTP hydrolysis – biochemical, ADP Hunter fluorescence, primary and confirmatory, confirmation (AID 624330); type: functional
# T5 sequence (Q9H0H5 whole entry): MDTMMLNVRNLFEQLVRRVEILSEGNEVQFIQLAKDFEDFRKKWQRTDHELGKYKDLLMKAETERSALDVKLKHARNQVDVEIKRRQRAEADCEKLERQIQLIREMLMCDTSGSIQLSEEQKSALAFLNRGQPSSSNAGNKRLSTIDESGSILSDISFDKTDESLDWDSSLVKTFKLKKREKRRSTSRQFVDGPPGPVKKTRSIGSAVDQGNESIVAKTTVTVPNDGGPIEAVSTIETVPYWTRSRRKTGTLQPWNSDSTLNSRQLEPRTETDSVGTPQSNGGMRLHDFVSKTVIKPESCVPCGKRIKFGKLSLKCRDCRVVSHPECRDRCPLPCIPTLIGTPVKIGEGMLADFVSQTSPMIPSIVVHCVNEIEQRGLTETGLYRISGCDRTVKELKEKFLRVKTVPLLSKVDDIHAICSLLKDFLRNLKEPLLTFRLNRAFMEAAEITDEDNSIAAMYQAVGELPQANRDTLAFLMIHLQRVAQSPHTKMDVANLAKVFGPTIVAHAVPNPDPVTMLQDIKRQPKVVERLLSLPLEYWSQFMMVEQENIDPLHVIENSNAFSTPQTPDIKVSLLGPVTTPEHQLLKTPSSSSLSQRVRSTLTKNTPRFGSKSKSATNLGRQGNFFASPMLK
# P388 = test: cells; type: functional; conditions: Mus musculus
# P388/ADR = test: cells; type: functional; conditions: Mus musculus
# SN12K1 = test: cells; type: functional; conditions: Homo sapiens
# [19] = Vero E6 cell cytotoxicity, dose response, cytotoxicity control for non-replicating M. tuberculosis project, secondary assay (AID 492998); type: functional, VeroE6; conditions: Vero C1008
# [20] = NIH3T3 cell viability loss – ATP luminescence, mouse fibroblasts, counter-screen, dose response (AID 2010); type: functional, cell-based;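 further: cells exposed to compound for about 90 hours before reading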
# cells = type: functional
# [21] = Trypanosoma cruzi growth suppression in host cells – NIH3T3 host cells, beta-gal luminescence, confirmation (AID 2044); type: functional, cell-based;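 further: intracellular parasites grown in NIH/3T3 mouse fibroblasts as host cells; luminescent beta-galactosidase reporter signal from transgenic T. cruzi replicating inside host cells; inhibitors lower the luminescence signal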
# Sequence of Glucose-6-phosphate 1-dehydrogenase (P11413 whole entry): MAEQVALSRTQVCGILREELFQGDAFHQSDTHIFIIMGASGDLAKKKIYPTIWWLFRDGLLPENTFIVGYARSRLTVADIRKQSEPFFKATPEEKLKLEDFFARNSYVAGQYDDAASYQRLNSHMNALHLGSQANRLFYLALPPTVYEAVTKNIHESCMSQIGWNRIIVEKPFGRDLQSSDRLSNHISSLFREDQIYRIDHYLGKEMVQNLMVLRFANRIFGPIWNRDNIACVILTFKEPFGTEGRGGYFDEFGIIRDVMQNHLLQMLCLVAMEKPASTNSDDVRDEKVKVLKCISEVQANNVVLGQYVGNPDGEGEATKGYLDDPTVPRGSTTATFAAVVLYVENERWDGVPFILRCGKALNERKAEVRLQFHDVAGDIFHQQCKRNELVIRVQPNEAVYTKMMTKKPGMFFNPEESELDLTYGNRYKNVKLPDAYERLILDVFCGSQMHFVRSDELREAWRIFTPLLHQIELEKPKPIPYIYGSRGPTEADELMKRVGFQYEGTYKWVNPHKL
compound,measurement,setting,value
COc1cc(NCc2ccccc2)c2ncn(C(C)C)c2c1,IC50,[1],> 80 µM (inactive)
CCCCc1ccc(NC(=O)N[C@H](C(=O)O)C(C)C)cc1,IC50,Leucine aminopeptidase,7.04 µM (active)
O=C(CSc1nc(-c2ccccc2)c(-c2ccccc2)[nH]1)N1CCN(S(=O)(=O)c2ccccc2)CC1,IC50,[2],3.67 µM (active)
CCC(C)[C@@H](CN)NCC1(c2ccccc2)CC1 (some centres undefined),IC50,[3],18.4 µM (active)
same,IC50,[4],> 66.6 µM (inactive)
N#Cc1c(C(F)(F)F)cc(-c2ccccc2)nc1SCC(=O)Nc1sc2c(c1C#N)CCC2,CC50,[5],> 40 µM (active)
same,EC50,BJ [6],> 150 µM (not active)
same,EC50,[7],> 150 µM (inconclusive)
same,EC50,BJ [8],> 150 µM (not active)
same,EC50,BJ [9],> 150 µM (inconclusive)
COc1ccc(C2c3ccc(O)cc3Oc3ncn(Cc4ccco4)c(=N)c32)cc1 (centres undefined),EC50,[10],> 260 µM (inactive)
same,IC50,[2],1.41 µM (active)
O=C(Nc1ccc(Cl)cc1)Nc1nnc(CSCc2ccc(Cl)cc2)s1,AC50,HEK293,3.92 µM (active)
same,AC50,INS1,3.99 µM (active)
N#C/C(=C\c1c[nH]nc1-c1ccccc1Br)C(=O)O,IC50,[2],3.58 µM (active)
O=C1C(Cl)=C(N2CCN(C/C=C/c3ccccc3)CC2)C(=O)N1c1ccnc(Cl)c1,IC50,[11],> 50 µM (inconclusive)
O=C(c1ccc(-c2ccc(Cl)cc2)o1)N1CCN(S(=O)(=O)c2cccs2)CC1,CC50,[5],26 µM (active)
C[N+]1(CCCCSc2ccc(O)cc2)CCCCC1,IC50,Large T antigen,12.1 µM (active)
same,IC50,[12],6.89 µM (active)
Cc1nc2ccccc2n1CC(=O)NC(C)C1CC2CCC1C2 (centres undefined),IC50,Protein Wnt-3a,4.3 µM (active)
NS(=O)(=O)c1ccc(Sc2nc3ccccc3s2)c([N+](=O)[O-])c1,CC50,[5],13 µM (active)
same,IC50,[13],> 80 µM (inactive)
CCOc1ccc(-c2ccc(SCC)nn2)cc1,AC50,[14],7.12 µM (active)
same,AC50,[15],> 52 µM (inactive)
same,AC50,[16],> 52 µM (inactive)
same,AC50,[17],8.8 µM (active)
COc1ccc(Cl)cc1NC(=O)NNC(=O)c1ccccn1,CC50,[5],28.8 µM (active)
O=C(Sc1nnc(O)nc1O)c1ccccc1,IC50,[18],224 µM (active)
same,IC50,[1],> 80 µM (inactive)
O=C(N[C@@H](c1ccccc1)[C@@H](O)C(=O)OCc1ccc2c(c1)OCO2)c1ccccc1,GI50,P388,64.7 µM (inactive)
same,GI50,P388/ADR,72.6 µM (inactive)
same,GI50,SN12K1,> 100 µM (inactive)
C/C(Cn1nnc([N+](=O)[O-])n1)=N\NC(=O)c1ccccc1O,IC50,[1],> 80 µM (inactive)
CC1C(=O)CC(c2cccs2)N(N=O)C1c1cccs1 (centres undefined),GI50,P388,20.4 µM (inactive)
same,GI50,P388/ADR,17.3 µM (inactive)
same,GI50,SN12K1,57.8 µM (inactive)
O=C(N/N=C/c1ccc([N+](=O)[O-])s1)c1ccncc1,CC50,[19],15.6 µM (active)
same,EC50,[20],> 60 µM (not active)
same,IC50,cells,1 µM (active)
same,EC50,[21],0.838 µM (active)
O=c1oc2c(ccc3occc32)c(N2CCCCC2)c1-c1ccccc1,GI50,P388,34.7 µM (inactive)
same,GI50,P388/ADR,48.6 µM (inactive)
same,GI50,SN12K1,> 100 µM (inactive)
CCOC(=O)/C=C/c1c[nH]c(=O)[nH]c1=O,GI50,P388,> 75 µM (inactive)
same,GI50,P388/ADR,> 66.4 µM (inactive)
same,GI50,SN12K1,> 75 µM (inactive)
CC(=O)C(=Cc1cn(C)c(=O)n(C)c1=O)C(C)=O,GI50,P388,80.7 µM (inactive)
same,GI50,P388/ADR,96.6 µM (inactive)
same,GI50,SN12K1,100 µM (inactive)
CCCCCCc1cn([C@H]2C[C@H](O)[C@@H](CO)O2)c(=O)[nH]c1=O,GI50,P388,> 100 µM (inactive)
same,GI50,P388/ADR,> 100 µM (inactive)
same,GI50,SN12K1,> 100 µM (inactive)
CC1=NNC(=O)C1CCC(=O)N/N=C/c1ccco1 (centres undefined),IC50,Leucine aminopeptidase,69.2 µM (active)
same,IC50,[12],> 80 µM (inactive)
